# Molecular target: T1, full-length human PHD1 (selectivity versus full-length human PHD2) (Homo sapiens, UniProt Q96KS0)
# T1 construct: purchased Active Motif (Carlsbad, CA, USA) 81064; host or cells: baculovirus expression system
# Assay: TR-FRET assay of PHD enzymes (IC50; Ki by Cheng-Prusoff; selectivity as ratio of Kis)
# Format: biochemical
# Conditions: ratio of Kis in the PHD1 and PHD2 TR-FRET assays; Ki=IC50/(1+[2-OG]/Km), 1 uM 2-OG
# Source text: Time-resolved fluorescence resonance energy transfer (TR-FRET) assay was utilized to determine the enzymatic half maximal inhibitory concentration (IC50) value of PHD inhibitors against the full-length human prolyl-4-hydroxylase domain (PHD) enzymes, PHD1 and PHD2. The TR-FRET assay was developed based on the specific binding of hydroxylated HIF-1α peptide with the complex formed by VHL, EloB and EloC (VBC), to generate a fluorescent signal. Terbium (Tb)-Donor (monoclonal antibody anti-6His-Tb-cryptate Gold) and D2-acceptor (streptavidin [SA]-D2) of TR-FRET are linked to the VBC complex and to HIF-1a peptide, respectively. The VBC complex binds specifically to the HIF-1a peptide when it is hydroxylated, allowing energy transfer from TR-FRET donor to acceptor (FIG. 1).
# TR-FRET Reagents. Monoclonal antibody anti-6His-Tb-cryptate Gold (catalog #61HI2TLA) and streptavidin (SA)-D2 (catalog #610SADLA) were purchased from CisBio International (Bedford, MA, USA).
# N-terminus biotinylated HIF-1α C35 synthetic peptide representing amino acids 547 to 581 and including the proline 564 PHD2 hydroxylation site was purchased from California Peptide Research (Salt Lake City, UT, USA).
# VBC complex. His-tagged recombinant VHL protein, EloB, EloC complex (His-VBC) was supplied by Axxam (Milan, Italy). Recombinant human VHL (National Center for Biotechnology Information [NCBI] accession number NP_00542.1) contained a His tag at the C-terminus of amino acids 55 to 213 and is referred to as VHL-His. VHL-His was co-expressed in E. coli with full-length human EloB (NCBI accession number Q15370.1) and full-length human EloC (NCBI accession number Q15369.1) and purified by affinity chromatography on a nickel-nitrilotriacetic acid (Ni-NTA) column as the His-VBC complex. Purity (˜80%) was assessed by sodium dodecyl sulfate polyacrylamide gel electrophoresis (SDS-PAGE).
# PHD1. Recombinant human PHD1 protein (catalog #81064, Lot #24717001) was purchased from Active Motif (Carlsbad, CA, USA). PHD1 was expressed in a baculovirus expression system as the full-length protein (NCBI accession number NP_542770.2) with an N-terminal FLAG tag (molecular weight 44.9 kDa). Purity (>90%) was assessed by SDS-PAGE.
# PHD2. The full-length human PHD2 enzyme was produced with a baculovirus infected insect cell (BIIC) expression system by Beryllium (Bedford, MA, USA). The PHD2 construct contained amino acids 1 to 426 of PHD2 (UniProt Knowledgebase[UniProtKB]/Swiss-Prot accession number Q9GZT9.1), and a His tag and a Tobacco Etch Virus (TEV) protease cleavage site at the N-terminus. The construct was expressed in Sf9 insect cells, purified by Ni-NTA column and digested with TEV protease to remove the His tag.
# TR-FRET Assay Procedure. PHD inhibitor compound was preincubated with PHD enzyme in a 10 μL reaction volume in white 384-well Optiplate microplates (catalog #6007290, Perkin Elmer, Waltham, MA, USA). For this, 5 μL of PHD inhibitor compound was serially diluted with dilution buffer (50 mM HEPES [4-(2-hydroxyethyl)-1-piperazineethanesulfonic acid] pH 7.5, 50 mM sodium chloride [NaCl], 0.01% Tween-20, 0.01% purified bovine serum albumin [BSA]) and mixed with 5 μL PHD enzyme mix prepared as a 4× concentrate in the dilution buffer containing PHD enzyme (60 nM PHD1, 20 nM PHD2, 140 nM PHD3), 40 μM ferrous ammonium sulfate (FAS), 4 mM sodium (Na) ascorbate. The plates were incubated for 30 minutes at room temperature without rotation.
# Five microliters of the VBC/anti-6His-Tb-cryptate Gold mix prepared as a 4× concentrate in dilution buffer containing 20 nM His-VBC, 1.32 nM monoclonal antibody anti-6His-Tb-cryptate Gold was then added. This step was followed immediately by the addition of […] of the HIF-1a C35 substrate mix prepared as a 4× concentrate in the dilution buffer containing 120 nM biotin-labeled HIF-1a C35, 132 nM SA-D2, 4 μM 2-oxoglutarate (2-OG) to reach a final reaction volume of 20 μL. […]
# T1 sequence (Q96KS0 whole entry): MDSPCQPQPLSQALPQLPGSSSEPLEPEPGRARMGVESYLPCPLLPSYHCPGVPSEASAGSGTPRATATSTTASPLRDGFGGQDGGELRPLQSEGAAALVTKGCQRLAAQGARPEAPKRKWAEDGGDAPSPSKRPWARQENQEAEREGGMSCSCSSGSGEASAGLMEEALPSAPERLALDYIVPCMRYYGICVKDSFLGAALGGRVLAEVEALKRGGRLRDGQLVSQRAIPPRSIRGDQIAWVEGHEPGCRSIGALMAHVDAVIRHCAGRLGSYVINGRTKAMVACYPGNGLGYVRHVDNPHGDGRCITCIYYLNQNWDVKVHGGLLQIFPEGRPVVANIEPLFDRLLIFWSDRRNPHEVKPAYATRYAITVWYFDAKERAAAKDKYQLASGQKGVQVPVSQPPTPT
row,Structure (SMILES),Selectivity of PHD1 over PHD2 [fold]
1,"O=C(NC[C@H](O)C(=O)O)c1ncc(-c2ccc3ccccc3c2)cc1O [Compound 7, (S)-2-hydroxy-3-(3-hydroxy-5-(naphthalen-2-yl)picolinamido)propanoic acid]",~16
2,"O=C(NCC1(C(=O)O)CC1)c1ncc(-c2cnn(-c3ccccc3)c2)cc1O [Compound 5, 1-((3-hydroxy-5-(1-phenyl-1H-pyrazol-4-yl)picolinamido)methyl)cyclopropane-1-carboxylic acid]",~61
3,"O=C(NC[C@H](O)C(=O)O)c1ncc(-c2cccc(Cl)c2)cc1O [Compound 6, (S)-3-(5-(3-chlorophenyl)-3-hydroxypicolinamido)-2-hydroxypropanoic acid]",~11
4,"O=C(NC[C@H](O)C(=O)O)c1ncc(-c2cnn(-c3ccccc3)c2)cc1O [Compound 10, (S)-2-hydroxy-3-(3-hydroxy-5-(1-phenyl-1H-pyrazol-4-yl)picolinamido)propanoic acid]",~29
5,"O=C(NCC1(C(=O)O)CCC1)c1ncc(-c2cnn(-c3ccccc3)c2)cc1O [Compound 12, 1-((3-hydroxy-5-(1-phenyl-1H-pyrazol-4-yl)picolinamido)methyl)cyclobutane-1-carboxylic acid]",~36
6,"O=C(O)CC1(NC(=O)c2ncc(-c3cnn(-c4ccccc4)c3)cc2O)CCC1 [Compound 16, 2-(1-(3-hydroxy-5-(1-phenyl-1H-pyrazol-4-yl)picolinamido)cyclobutyl)acetic acid]",~2
7,"O=C(NC[C@@H](O)C(=O)O)c1ncc(-c2cccc(Cl)c2)cc1O [Compound 9, (R)-3-(5-(3-chlorophenyl)-3-hydroxypicolinamido)-2-hydroxypropanoic acid]",~13
8,"O=C(NCC1(C(=O)O)CC1)c1ncc(-c2ccc3ccccc3c2)cc1O [Compound 1, 1-((3-hydroxy-5-(naphthalen-2-yl)picolinamido)methyl)cyclopropane-1-carboxylic acid]",~219
9,"O=C(NC[C@@H](O)C(=O)O)c1ncc(-c2cnn(-c3ccccc3)c2)cc1O [Compound 11, (R)-2-hydroxy-3-(3-hydroxy-5-(1-phenyl-1H-pyrazol-4-yl)picolinamido)propanoic]",~42
10,"O=C(NC[C@@H](O)C(=O)O)c1ncc(-c2ccc3ccccc3c2)cc1O [Compound 8, (R)-2-hydroxy-3-(3-hydroxy-5-(naphthalen-2-yl)picolinamido)propanoic acid]",~100
11,"O=C(NCC1(C(=O)O)CCOCC1)c1ncc(-c2cnn(-c3ccccc3)c2)cc1O [Compound 14, 4-((3-hydroxy-5-(1-phenyl-1H-pyrazol-4-yl)picolinamido)methyl)tetrahydro-2H-pyran-4-carboxylic acid]",~51
12,"O=C(NCC1(C(=O)O)CCCCC1)c1ncc(-c2cnn(-c3ccccc3)c2)cc1O [Compound 13, 1-((3-hydroxy-5-(1-phenyl-1H-pyrazol-4-yl)picolinamido)methyl)cyclohexane-1-carboxylic acid]",~2
13,"O=C(NCC1(C(=O)O)CCC1)c1ncc(-c2ccc3ccccc3c2)cc1O [Compound 2, 1-((3-hydroxy-5-(naphthalen-2-yl)picolinamido)methyl)cyclobutane-1-carboxylic acid]",~1258
14,"O=C(NCC1(C(=O)O)CCCC1)c1ncc(-c2cnn(-c3ccccc3)c2)cc1O [Compound 17, 1-((3-hydroxy-5-(1-phenyl-1H-pyrazol-4-yl)picolinamido)methyl)cyclopentane-1-carboxylic acid]",~8
15,"O=C(O)CC1(NC(=O)c2ncc(-c3cnn(-c4ccccc4)c3)cc2O)CC1 [Compound 15, 2-(1-(3-hydroxy-5-(1-phenyl-1H-pyrazol-4-yl)picolinamido)cyclopropyl)acetic acid]",~10
16,"O=C(NCC1(C(=O)O)CCC1)c1ncc(-c2cccc(Cl)c2)cc1O [Compound 4, 1-((5-(3-chlorophenyl)-3-hydroxypicolinamido)methyl)cyclobutane-1-carboxylic acid]",~6
17,"O=C(NCC1(C(=O)O)CC1)c1ncc(-c2cccc(Cl)c2)cc1O [Compound 3, 1-((5-(3-chlorophenyl)-3-hydroxypicolinamido)methyl)cyclopropane-1-carboxylic acid]",~338

# Source: patent US20240327376A1, “PICOLINAMIDE COMPOUNDS AS SELECTIVE PHD1 INHIBITORS, COMPOSITIONS, AND METHODS OF USE” (Akebia Therapeutics, Inc., priority 2021, published 2024)
